The record followed here is ChEMBL document CHEMBL1921757, “Small molecule probes of the receptor binding site in the Vibrio cholerae CAI-1 quorum sensing circuit” (Bioorg Med Chem, 2011).

Data set [1] has as its target T1, CAI-1 autoinducer sensor kinase/phosphatase CqsS (Vibrio cholerae serotype O1 (strain ATCC 39315 / El Tor Inaba N16961)) (UniProt Q9KM66).
T1 sequence (whole entry): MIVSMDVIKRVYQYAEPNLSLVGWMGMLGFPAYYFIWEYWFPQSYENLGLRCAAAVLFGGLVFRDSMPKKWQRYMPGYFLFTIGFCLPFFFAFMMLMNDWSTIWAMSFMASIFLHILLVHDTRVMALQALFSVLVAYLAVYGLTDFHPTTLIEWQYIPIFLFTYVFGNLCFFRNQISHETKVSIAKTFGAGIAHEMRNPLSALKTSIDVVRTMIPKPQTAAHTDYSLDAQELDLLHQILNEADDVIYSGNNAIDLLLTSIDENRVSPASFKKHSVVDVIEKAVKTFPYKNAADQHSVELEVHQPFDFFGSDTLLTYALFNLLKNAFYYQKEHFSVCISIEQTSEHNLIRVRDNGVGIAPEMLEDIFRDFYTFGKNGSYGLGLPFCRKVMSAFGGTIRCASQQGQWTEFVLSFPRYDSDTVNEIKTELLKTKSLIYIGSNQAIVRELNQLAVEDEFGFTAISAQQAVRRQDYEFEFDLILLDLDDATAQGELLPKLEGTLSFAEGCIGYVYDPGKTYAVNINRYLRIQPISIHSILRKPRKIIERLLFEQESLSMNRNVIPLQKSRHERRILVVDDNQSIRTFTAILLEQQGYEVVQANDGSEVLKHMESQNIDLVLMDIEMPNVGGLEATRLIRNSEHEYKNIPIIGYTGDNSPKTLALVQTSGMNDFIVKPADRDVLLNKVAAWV
As to the kind of experiment: Agonist activity at CqsS receptor in cqsA-deficient, luxQ-deficient Vibrio cholerae MM920 harboring cosmid pBB1 carrying Vibrio harveyi luxCDABE gene assessed as maximal quorum sensing regulated bioluminescence at 50 uM after 4 hrs by scintillation counting relative to (S)-CAI-1. The data set is classed as functional.

In data set [2] the target is T2, CAI-1 autoinducer sensor kinase/phosphatase CqsS (Vibrio cholerae serotype O1 (strain ATCC 39315 / El Tor Inaba N16961), UniProt Q9KM66).
T2 sequence (Q9KM66 whole entry): T1 sequence (whole entry)
As to the kind of experiment: Agonist activity at CqsS receptor in cqsA-deficient, luxQ-deficient Vibrio cholerae MM920 harboring cosmid pBB1 carrying Vibrio harveyi luxCDABE gene assessed as induction of quorum sensing regulated bioluminescence after 4 hrs by scintillation counting. The data set is classed as functional.

Data set [3] concerns the target T1, CAI-1 autoinducer sensor kinase/phosphatase CqsS (Vibrio cholerae serotype O1 (strain ATCC 39315 / El Tor Inaba N16961)). Kind of data set: Ratio of compound EC50 to (S)-CAI-1 EC50 for CqsS receptor in cqsA-deficient, luxQ-deficient Vibrio cholerae MM920 harboring cosmid pBB1 carrying Vibrio harveyi luxCDABE gene assessed as induction of quorum sensing regulated bioluminescence after 4 hrs by scintillation counting.

Another data set has as its system Vibrio cholerae. As to the kind of experiment: Antibacterial activity against Vibrio cholerae MM920 assessed as growth inhibition after 4 hrs by spectrophotometry. The data set is classed as organism-based. The settings on record: in vivo.
In data set [4] the target is T2, CAI-1 autoinducer sensor kinase/phosphatase CqsS. As to the kind of experiment: Antagonist activity at CqsS receptor in Vibrio cholerae MM920 assessed as inhibition of quorum sensing regulated CAI-1 induced bioluminescence after 4 hrs by scintillation counting. The data set is classed as functional.
Data set [5] addresses T1, CAI-1 autoinducer sensor kinase/phosphatase CqsS (Vibrio cholerae serotype O1 (strain ATCC 39315 / El Tor Inaba N16961)). As to the kind of experiment: Antagonist activity at CqsS receptor in Vibrio cholerae MM920 assessed as inhibition of quorum sensing regulated CAI-1 induced bioluminescence after 4 hrs by scintillation counting relative to Ph-CAI-1. The data set is classed as functional.

The target is the same in data set [6]. Kind of data set: Ratio of compound IC50 to Ph-CAI-1 IC50 for CqsS receptor in Vibrio cholerae MM920 assessed as inhibition of quorum sensing regulated CAI-1 induced bioluminescence after 4 hrs by scintillation counting.

Consider `CCCCCC(=O)[C@@H](O)CC`, for which the Emax in data set [1] worked out at 27%. Besides, in data set [2], the 50% effective concentration (EC50) was > 50 µM. Besides, in data set [3], the Ratio EC50 was > 200. Also, the “growth inhibition (GI)” value with Vibrio cholerae is reported as “Not Active”.

On to `CCCCCCC(=O)[C@@H](O)CC`, for which the maximal response (Emax) in data set [1] was 59%. In addition, the EC50 in data set [2] is > 50 µM. For the same compound, the Ratio EC50 in data set [3] was > 200. For the same compound, in the data set on Vibrio cholerae, the “growth inhibition (GI)” value is recorded as “Not Active”.

As to `CCCCCCCCCCCCC(=O)[C@@H](O)CC`, in data set [1], the Emax was 45%. The EC50 in data set [2] was > 50 µM. For the same compound, in data set [3], the Ratio EC50 was > 200. Further, the “growth inhibition (GI)” value with Vibrio cholerae was “Not Active”.

Take `CCCCCCCCCC(=O)C(O)c1ccc(O)c(O)c1` (racemic): the IC50 in data set [4] came out at 174 µM. The Imax in data set [5] came out at 122%. In addition, the Ratio IC50 in data set [6] amounted to 3.4. Besides, the “growth inhibition (GI)” value in the data set on Vibrio cholerae was “Not Active”.

Turning to `CCCCCCCCCC(=O)C(O)Cc1ccccc1` (racemic), the IC50 in data set [4] worked out at 136 µM. For the same compound, the Imax in data set [5] was found to be 124%. Also, in data set [6], the Ratio IC50 amounted to 1.9. Moreover, the “growth inhibition (GI)” value in the data set with Vibrio cholerae was “Not Active”.

Consider `CCCCCCCCCC(=O)C(O)c1ccccc1F` (racemic), for which the 50% inhibitory concentration (IC50) in data set [4] was determined as 74 µM. Further, the Imax in data set [5] came out at 105%. The Ratio IC50 in data set [6] worked out at 1.5. Also, the “growth inhibition (GI)” value in the data set with Vibrio cholerae is given as “Not Active”.

Regarding `CCCCCCCCCC(=O)C(O)c1ccccc1O` (racemic), the IC50 in data set [4] was 172 µM. The Imax in data set [5] came to 144%. Further, the Ratio IC50 in data set [6] is 3.4. Besides, the “growth inhibition (GI)” value with Vibrio cholerae is on record as “Not Active”.
